Test results reported in patent US5214048A, “Oxetanocins” (priority 1987, dated 1993).
Values after ≈ are worked out from the molar mass of the structure shown.

Key:
[1] = test system: T lymphocyte (spleen cells stimulated by Con A); assay: Inhibition of T lymphocyte blastgenesis caused by Con A; format: cell-based, BALB/C mouse; conditions: for inhibition at 0.8 µg/mL / inhibition at 4 µg/mL / inhibition at 20 µg/mL: Mus musculus, T-lymphocyte, read-out: Inhibitory rate (%) on T lymphocyte blastgenesis caused by Con A; for inhibition at 0.8 µg/mL: 0.8 μg/ml; for inhibition at 4 µg/mL: 4.0 μg/ml; for inhibition at 20 µg/mL: 20.0 μg/ml
Protocol: (§1) In the similar method to Waithe et al. (Waithe et al., Handbook of Experimental Immunology, 26, 1, 1978), compounds OXT-X, 2-amino-OXT-A and OXT-G were examined for the effect on lymphocyte blastgenesis.
Inhibition of T lymphocyte blastgenesis caused by Con A:
Spleen cells of BALB/C mouse were dividingly poured into microplate at a rate of 2×10^5 cells/0.2 ml/well. Test compounds of varied concentration were added to wells other than control group. Further, Con A was added to all the wells at a rate of 5 micrograms/ml. Then, the cell suspensions were cultured at 37° C. for 72 hours in a culture chamber having an atmosphere of 5% v/v carbon dioxide. The extent of lymphocyte blastgenesis was determined by adding 1 μci/well of ^3 [H]-thymidine 6 hours before completion of culture and measuring the intake into cultured cells by means of a liquid scintillation counter. Numerical value (1-B dpm/A dpm)×100 was taken as inhibitory rate of each sample compound on blastgenesis, wherein A dpm was intake count in the case of adding Con A only and B dpm was intake count in the case of adding Con A and the sample compound.

[2] = test system: B lymphocyte (spleen cells stimulated by LPS); assay: Inhibition of B lymphocyte blastgenesis caused by LPS; format: cell-based, BALB/C mouse; conditions: for inhibition at 4 µg/mL / inhibition at 20 µg/mL: Mus musculus, Lymphocyte, read-out: Inhibitory rate (%) on blastgenesis of B lymphocyte caused by LPS; for inhibition at 4 µg/mL: 4.0 μg/ml; for inhibition at 20 µg/mL: 20.0 μg/ml
Protocol: as §1
Inhibition of B lymphocyte blastgenesis caused by LPS (lipopolysaccharide)
According to the method of Test Example 1 (except that 100 μg/ml of Escherichia coli LPS was added in place of Con A), the intake of ^3 [H]-thymidine into blastgenesis B cells was measured. The inhibitory rate of the test sample was similarly determined.

[3] = test system: HIV (human immunodeficiency virus); assay: Anti-HIV activity (development of virus antigen in MT-4 cells); format: cell-based; conditions: DMSO only 80 to 90%
Protocol: (b) Anti-HIV (human immunodeficiency virus) activity
MT-4 cell (about 100,000 cells/ml) was added into a 24 well tray, and then 100 microliters of a solution containing a predetermined quantity of a compound of this invention was added. After culturing it at 37° C. for 5 hours in 5% (v/v) carbon dioxide incubator, 10^3 to 10^4 infection units of HIV was added and cultured for 4 days. Then, a part of the culture fluid was coated onto a slide glass and immobilized with acetone, after which development of virus antigen was observed by indirect fluorescent antibody method.
As the primary antibody of the fluorescent antibody method, a serum of AIDS patient was used. As its secondary antibody, FITC-labelled […] was used.

[4] = test system: MT-4 cells; assay: Cell denaturation of MT-4 cells without virus; format: cell-based; conditions: 100 μg/ml
[5] = test system: cytomegalovirus (A01169 strain); assay: Anti-cytomegalovirus activity (plaque formation on human fetal fibroblasts); format: cell-based; conditions: for IC50: Human betaherpesvirus 5, Fibroblast, 240 h, human fetal fibroblasts, 10 days
[6] = test system: herpes simplex virus type-2 (HSV-2) strain 186; assay: Effect of treatment against HSV-2 infection in mice; format: in vivo, ICR mice; conditions: 5 days
Protocol: (a) Effect of treatment with OXTs against HSV-2 infection in mice
The 8-week old male ICR mice were inoculated intraperitoneally (ip) with herpes simplex virus type-2(HSV-2)strain 186 at 2.5×10^5 PFU/0.2 ml/mouse. OXTs were administered ip once a day with the indicated doses for 5 days, starting 6 hours after inoculation. The survival rates (%)of mice treated with OXTs were evaluated at least for 3 weeks after inoculation.

[7] = test system: duck hepatitis B virus (DHBV); assay: Efficacy against DHBV-infected duck (dot-blot hybridization of sera); format: in vivo; conditions: 6 days
Protocol: (c) Efficacy of OXT-G and 2-Amino-OXT-A against DHBV-infected Duck Newborn ducklings were intraperitoneally infected with 50 μl of duck hepatitis B virus (DHBV) containing sera. Persistent infection in ducks was confirmed by dot-blot hybridization of sera taken from 6 week old ducks. Ducks were intraperitoneally treated with the indicated doses of OXT-G and 2-Animo-OXT-A once a day for 6 days. After treatment of OXTs sera were collected and examined for the presence of DHBV-DNA by dot-blot hybridization as ^32 p-labeled DHBV DNA probe.

[8] = test system: murine cytomegalovirus (MCMV) Smith strain; assay: Efficacy against MCMV infection in mice, body weight; format: in vivo, ICR mice; conditions: 10 mg/kg/day
Protocol: (b) Efficacy of treatment with OXT-G against MCMV infection in mice The 4-week old male ICR mice was inoculated intraperitoneally with Smith strain of murine cytomegalovirus (MCMV) at 1×10^5 PFU/0.2 ml and treated with 10 mg/kg/day of OXT-G once a day for 5 days, starting 6 hours after inoculation. The mortality and changes in body weight were monitored every day.

[9] = test system: murine cytomegalovirus (MCMV) Smith strain; assay: Titers of MCMV in various tissues of mice; format: in vivo, ICR mice; conditions: for Virus titer: 6 days after infection

Cell denaturation [4]	SMILES	effect on blastgenesis of T lymphocyte stimulated by Con A [1]	inhibition at 0.8 µg/mL [1]	inhibition at 4 µg/mL [1]	inhibition at 20 µg/mL [1]	effect on blastgenesis of B lymphocyte stimulated by LPS [2]	inhibition at 4 µg/mL [2]	inhibition at 20 µg/mL [2]	Development of virus antigen (%) ([3]; 1 μg/ml)	Development of virus antigen (%) ([3]; 10 μg/ml)	Development of virus antigen (%) ([3]; 100 μg/ml)	anti-cytomegalovirus inhibitory action [5]	IC50 [5]	Survivor/Total ([6]; 10 mg/kg/day ip)	survival rate (%) ([6]; 10 mg/kg/day ip)	Content (%) of DHBV in sera ([7]; 20 mg/kg/day ip)	Content (%) of DHBV in sera ([7]; 50 mg/kg/day ip)	Content (%) of DHBV in sera ([7]; 100 mg/kg/day ip)	also measured
±~+	Nc1nc(N)c2ncn([C@@H]3O[C@H](CO)[C@H]3CO)c2n1 [2-Amino-OXT-A]	markedly suppressed	21%	94%	99%	markedly suppressed	23%	93%	30%	26%	5%	particularly outstanding in the inhibitory action	2 µg/mL (≈ 7.51 µM)	7/10	70%	28%	18%	8%	–
–	Nc1ncnc2c1ncn2[C@@H]1O[C@H](CO)[C@H]1CO [OXT-A, reference compound]	–	–	–	–	–	–	–	–	–	–	–	13 µg/mL (≈ 51.7 µM)	–	–	–	–	–	–
–	Nc1nc2c(ncn2[C@@H]2O[C@H](CO)[C@H]2CO)c(=O)[nH]1 [OXT-G]	markedly suppressed	85%	96%	100%	markedly suppressed	64%	93%	42%	17%	–	particularly outstanding in the inhibitory action	1 µg/mL (≈ 3.74 µM)	8/10	80%	9%	25%	3%	Survivor/Total ([6]; 5 mg/kg/day ip): 3/10; survival rate (%) ([6]; 5 mg/kg/day ip): 30%; Survivor/Total ([6]; 20 mg/kg/day ip): 10/10; survival rate (%) ([6]; 20 mg/kg/day ip): 100%; body weight of MCMV-infected mice [8]: maintained their body weight on the initial level for several days and gradually gained weight thereafter; Average (5 mice) of body weight ([8]; day 0): 18.0 g; Average (5 mice) of body weight ([8]; day 4): 20.0 g; Average (5 mice) of body weight ([8]; day 8): 24.5 g; Average (5 mice) of body weight ([8]; day 14): 31.0 g; Virus titer ([9]; Kidney): < 2 PFU/0.1 g tissue; Virus titer ([9]; Liver): < 2 PFU/0.1 g tissue; Virus titer ([9]; Lung): < 2 PFU/0.1 g tissue; Virus titer ([9]; Spleen): < 2 PFU/0.1 g tissue; quantity of MCMV recovered from the tissues ([9]; mouse, in vivo): significant reduction in the quantity of MCMV recovered from the tissues
–	O=c1[nH]cnc2c1ncn2[C@@H]1O[C@H](CO)[C@H]1CO [OXT-H, reference compound]	–	–	–	–	–	–	–	–	–	–	–	18 µg/mL (≈ 71.4 µM)	–	–	–	–	–	–
±~+	O=c1[nH]c(=O)c2ncn([C@@H]3O[C@H](CO)[C@H]3CO)c2[nH]1 [OXT-X]	markedly suppressed	11%	36%	71%	markedly suppressed	8%	27%	66%	52%	5%	–	–	–	–	–	–	–	–
